System: Bovine cardiac myofibrils
Assay: In vitro model of dose-dependent myofibril ATPase modulation (AC1.4, pyruvate kinase/lactate dehydrogenase-coupled ATPase assay at pCa25)
Format: biochemical
Conditions: concentration at which ATPase activity was 1.4-fold higher than the bottom of the dose curve, mean of a minimum of two independent tests
How it was run: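 Coupled-enzyme ATPase on bovine heart myofibrils, 1 mM ATP, EGTA/CaCl2 buffered; 340 nm readout.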

| AC1.4 [µM] | SMILES |
| --- | --- |
| 5.894 | Cc1cc(C(=O)N2[C@@H](C(=O)N[C@@H](c3cc(F)c(C(F)(F)F)cc3F)C3CC3)C[C@H]3C[C@H]32)c(C(C)O)cn1 (stereo partly drawn) [Example 822, (1R,3R,5R)-N-((R)-cyclopropyl(2,5-difluoro-4-(trifluoromethyl)phenyl)methyl)-2-(5-(l-hydroxyethyl)-2-methylisonicotinoyl)-2-azabicyclo[3.1.0]hexane-3-carboxamide] |
| 0.4473 | C[C@H](C(=O)N[C@H](C)c1ccc(C(F)(F)F)cc1F)N(C)C(=O)[C@H]1CCCN(S(=O)(=O)N2CC(C#N)C2)C1 [Example 209, (3S)-1-((3-cyano-1-azetidinyl)sulfonyl)-N-((2R)-1-(((1R)-1-(2-fluoro-4-(trifluoromethyl)phenyl)ethyl)amino)-1-oxo-2-propanyl)-N-methyl-3-piperidinecarboxamide] |
| 2.838 | CS(=O)(=O)c1cccc(C(=O)N2CCOC[C@@H]2C(=O)N[C@@H](c2ccc(C(F)(F)F)cc2F)C2CC2)c1 [Example 576, (3R)-N-((R)-cyclopropyl(2-fluoro-4-(trifluoromethyl)phenyl)methyl)-4-(3-(methylsulfonyl)benzoyl)-3-morpholinecarboxamide] |
| 5.5445 | O=C(NCc1ccc(C(F)(F)F)cc1)[C@H]1CCCN1C(=O)[C@H]1CCCN(S(=O)(=O)N2CCC2c2ccc(Cl)cc2)C1 (stereo partly drawn) [Example 697, (2R)-1-((3S)-1-((2-(4-chlorophenyl)azetidin-1-yl)sulfonyl)piperidine-3-carbonyl)-N-(4-(trifluoromethyl)benzyl)pyrrolidine-2-carboxamide] |
| 0.2462 | C[C@@H](NC(=O)[C@H]1CCCN1C(=O)[C@@H]1CN(S(=O)(=O)N2CC(C#N)C2)CCN1)c1ccc(C(F)(F)F)cc1F [Example 144, 1-(((2S)-4-((3-cyano-1-azetidinyl)sulfonyl)-2-piperazinyl)carbonyl)-N-((1R)-1-(2-fluoro-4-(trifluoromethyl)phenyl)ethyl)-D-prolinamide] |
| 2.1525 | O=C(N[C@@H](c1ccc(C(F)(F)F)cc1F)C1COC1)[C@H]1C[C@H]2C[C@H]2N1C(=O)c1ccnc(C(F)F)c1 [Example 480, (1R,3R,5R)-2-((2-(difluoromethyl)-4-pyridinyl)carbonyl)-N-((R)-(2-fluoro-4-(trifluoromethyl)phenyl)(3-oxetanyl)methyl)-2-azabicyclo[3.1.0]hexane-3-carboxamide] |
| 2.8435 | N#Cc1ccc(CNC(=O)[C@H]2CCCN2C(=O)[C@H]2CCCN(S(=O)(=O)N3CC(C#N)C3)C2)cc1 [Example 551, 1-(((3S)-1-((3-cyano-1-azetidinyl)sulfonyl)-3-piperidinyl)carbonyl)-N-(4-cyanobenzyl)-D-prolinamide] |
| 0.244 | N#CC1CN(S(=O)(=O)N2CCC(F)(F)[C@H](C(=O)N3CCC[C@@H]3C(=O)NCc3ccc(C(F)(F)F)cc3)C2)C1 [Example 143, 1-(((3S)-1-((3-cyano-1-azetidinyl)sulfonyl)-4,4-difluoro-3-piperidinyl)carbonyl)-N-(4-(trifluoromethyl)benzyl)-D-prolinamide] |
| 0.0372 | N#CC1CN(S(=O)(=O)N2CCC[C@H](C(=O)N3CCC[C@@H]3C(=O)N[C@@H](c3cc(F)c(C(F)(F)F)cc3F)C3CC3)C2)C1 [Example 35, 1-(((3S)-1-((3-cyano-1-azetidinyl)sulfonyl)-3-piperidinyl)carbonyl)-N-((R)-cyclopropyl(2,5-difluoro-4-(trifluoromethyl)phenyl)methyl)-D-prolinamide] |
| 1.4595 | CS(=O)(=O)c1cccc(C(=O)N2CCC[C@@H]2C(=O)N[C@@H](c2ccc(Cl)c(F)c2)C2CC2)c1 [Example 426, N-((R)-(4-chloro-3-fluorophenyl)(cyclopropyl)methyl)-1-(3-(methylsulfonyl)benzoyl)-D-prolinamide] |
| 3.371 | O=C(NCc1ccc(C(F)(F)F)cc1)[C@H]1CCCN1C(=O)[C@H]1CCCN(S(=O)(=O)N2CC(n3cccn3)C2)C1 [Example 582, 1-(((3S)-1-((3-(1H-pyrazol-1-yl)-1-azetidinyl)sulfonyl)-3-piperidinyl)carbonyl)-N-(4-(trifluoromethyl)benzyl)-D-prolinamide] |
| 1.0472 | N#C[C@H]1C[C@H](S(=O)(=O)c2cccc(C(=O)N3CCCC[C@@H]3C(=O)NCc3ccc(C(F)(F)F)nc3)c2)C1 [Example 355, (2R)-1-((3-((trans-3-cyanocyclobutyl)sulfonyl)phenyl)carbonyl)-N-((6-(trifluoromethyl)-3-pyridinyl)methyl)-2-piperidinecarboxamide] |
| 0.4034 | N#CC1CN(S(=O)(=O)N2CCC[C@H](C(=O)N3CCC[C@@H]3C(=O)N[C@@H](c3ccc(C(F)(F)F)cc3)C(F)(F)F)C2)C1 [Example 198, 1-(((3S)-1-((3-cyano-1-azetidinyl)sulfonyl)-3-piperidinyl)carbonyl)-N-((1S)-2,2,2-trifluoro-1-(4-(trifluoromethyl)phenyl)ethyl)-D-prolinamide] |
| 5.643 | N#Cc1cccc(C(=O)N2CCC[C@@H]2C(=O)N[C@@H](c2ccc(C(F)(F)F)cc2F)C2CC2)c1 [Example 701, 1-(3-cyanobenzoyl)-N-((R)-cyclopropyl(2-fluoro-4-(trifluoromethyl)phenyl)methyl)-D-prolinamide] |
| 3.476 | COc1ccc(CNC(=O)[C@H]2CCCN2C(=O)[C@H]2CCCN(S(=O)(=O)N3CC(C#N)C3)C2)cc1Cl [Example 591, N-(3-chloro-4-methoxybenzyl)-1-(((3S)-1-((3-cyano-1-azetidinyl)sulfonyl)-3-piperidinyl)carbonyl)-D-prolinamide] |
| 1.0535 | N#CC1CN(S(=O)(=O)N2CCC[C@H](C(=O)N3CCC[C@@H]3C(=O)NCc3cc(F)cc(F)c3F)C2)C1 [Example 356, 1-(((3S)-1-((3-cyano-1-azetidinyl)sulfonyl)-3-piperidinyl)carbonyl)-N-(2,3,5-trifluorobenzyl)-D-prolinamide] |
| 3.527 | COc1ccc(S(C)(=O)=O)cc1C(=O)N1[C@@H](C(=O)N[C@@H](c2ccc(C(F)(F)F)cc2F)C2CC2)C[C@H]2C[C@H]21 [Example 612, (1R,3R,5R)-N-((R)-cyclopropyl(2-fluoro-4-(trifluoromethyl)phenyl)methyl)-2-(2-methoxy-5-(methylsulfonyl)benzoyl)-2-azabicyclo[3.1.0]hexane-3-carboxamide] |
| 1.606 | C[C@@H](NC(=O)[C@H]1CCCN1C(=O)[C@@H]1CN(S(=O)(=O)N2CC(C#N)C2)CCN1)c1ccc(C(F)(F)F)cc1 [Example 428, 1-(((2S)-4-((3-cyano-1-azetidinyl)sulfonyl)-2-piperazinyl)carbonyl)-N-((1R)-1-(4-(trifluoromethyl)phenyl)ethyl)-D-prolinamide] |
| 4.0915 | COc1cc(C(C)NC(=O)[C@H]2CCCN2C(=O)[C@H]2CCCN(S(=O)(=O)N3CC(C#N)C3)C2)ccc1OC(F)F (stereo partly drawn) [Example 632, (2R)-1-((S)-1-((3-cyanoazetidin-1-yl)sulfonyl)piperidine-3-carbonyl)-N-(1-(4-(difluoromethoxy)-3-methoxyphenyl)ethyl)pyrrolidine-2-carboxamide] |
| 1.511 | N#CC1CN(S(=O)(=O)N2CCC[C@H](C(=O)N3CCC[C@@H]3C(=O)NCc3ccc(CF)cc3)C2)C1 [Example 413, 1-(((3S)-1-((3-cyano-1-azetidinyl)sulfonyl)-3-piperidinyl)carbonyl)-N-(4-(fluoromethyl)benzyl)-D-prolinamide] |
| 1.5766 | CS(=O)(=O)c1cccc(C(=O)N2[C@@H](C(=O)N[C@@H](c3cc(F)c(Cl)cc3F)C3(F)COC3)C[C@H]3C[C@H]32)c1 [Example 812, (1R,3R,5R)-N-((S)-(4-Chloro-2,5-difluorophenyl)(3-fluorooxetan-3-yl)methyl)-2-(3-(methylsulfonyl)benzoyl)-2-azabicyclo[3.1.0]hexane-3-carboxamide] |
| 5.725 | CS(=O)(=O)N1CC(c2cccc(C(=O)N3CCC[C@@H]3C(=O)N[C@@H](c3ccc(C(F)(F)F)cc3F)C3CC3)c2)C1 [Example 704] |
| 2.23 | CS(=O)(=O)c1cccc(C(=O)N2C[C@H](O)C[C@@H]2C(=O)N[C@@H](c2ccc(C(F)(F)F)cc2F)C2CC2)c1 [Example 506, (4R)-N-((R)-cyclopropyl(2-fluoro-4-(trifluoromethyl)phenyl)methyl)-4-hydroxy-1-(3-(methylsulfonyl)benzoyl)-D-prolinamide] |
| 0.4889 | O=C(N[C@@H](c1cc(F)c(C(F)(F)F)cc1F)C1CC1)[C@H]1C[C@H]2C[C@H]2N1C(=O)c1ccnc(C(F)(F)F)c1 [Example 225, (1R,3R,5R)-N-((R)-cyclopropyl(2,5-difluoro-4-(trifluoromethyl)phenyl)methyl)-2-((2-(trifluoromethyl)-4-pyridinyl)carbonyl)-2-azabicyclo[3.1.0]hexane-3-carboxamide] |
| 7.417 | CS(=N)(=O)c1cccc(C(=O)N2[C@@H](C(=O)N[C@@H](c3cc(F)c(Cl)cc3F)C3CC3)C[C@H]3C[C@H]32)c1 (stereo partly drawn) [Example 752, (1R,3R,5R)—N—((R)-(4-chloro-2,5-difluorophenyl)(cyclopropyl)methyl)-2-(3-(S-methylsulfonimidoyl)benzoyl)-2-azabicyclo[3.1.0]hexane-3-carboxamide] |
| 2.854 | CS(=O)(=O)c1cccc(C(=O)N2CCSCC2C(=O)N[C@@H](c2ccc(C(F)(F)F)cc2F)C2CC2)c1 (stereo partly drawn) [Example 552, N-((R)-cyclopropyl(2-fluoro-4-(trifluoromethyl)phenyl)methyl)-4-(3-(methylsulfonyl)benzoyl)thiomorpholine-3-carboxamide] |
| 0.8776 | CS(=O)(=O)c1cccc(C(=O)N2CCOC[C@@H]2C(=O)N[C@@H](c2cc(F)c(Cl)cc2F)C2CC2)c1 [Example 328, (3R)-N-((R)-(4-chloro-2,5-difluorophenyl)(cyclopropyl)methyl)-4-(3-(methylsulfonyl)benzoyl)-3-morpholinecarboxamide] |

From patent US11780826B2 (Amgen Inc., priority 2017, dated 2023)
